Reference: ChEMBL document CHEMBL5465560, “Selectivity Literature for EUbOPEN Chemogenomic Library” (2024)
Blank lines part the entries; values can stand above or below the compound they belong to.

How the values were obtained:
[1] = target: Dual specificity tyrosine-phosphorylation-regulated kinase 1A (Homo sapiens, UniProt Q13627); test: Selectivity interaction (Kinase panel (Z-LYTE Assay)) EUB0001632a DYRK1A; conditions: at 10 µM
[2] = Selectivity interaction (KinomeScan (DiscoverX)) EUB0000666a CDK2H; conditions: at 10 µM
Motilin receptor = Motilin receptor (Homo sapiens, UniProt O43193); test: Selectivity interaction (Motilin receptor binding assay, human recombinant ) EUB0000877a MLNR
Sequence of Motilin receptor (O43193 whole entry): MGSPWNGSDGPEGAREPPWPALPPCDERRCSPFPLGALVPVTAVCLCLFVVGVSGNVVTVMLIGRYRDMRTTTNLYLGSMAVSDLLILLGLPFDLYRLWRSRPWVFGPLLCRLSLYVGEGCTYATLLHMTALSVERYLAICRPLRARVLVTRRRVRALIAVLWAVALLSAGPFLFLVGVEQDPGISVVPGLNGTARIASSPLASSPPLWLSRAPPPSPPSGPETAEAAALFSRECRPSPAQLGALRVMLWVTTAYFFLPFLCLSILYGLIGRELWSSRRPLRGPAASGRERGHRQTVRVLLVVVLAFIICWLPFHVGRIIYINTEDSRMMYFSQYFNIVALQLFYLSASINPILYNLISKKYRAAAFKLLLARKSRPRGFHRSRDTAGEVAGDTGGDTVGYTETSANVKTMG

[3] = target: Ribosomal protein S6 kinase alpha-3 (Homo sapiens, UniProt P51812); test: Selectivity interaction (Kinase panel (literature)) EUB0001199aCl RPS6KA3; conditions: at 1 µM
Sequence of Ribosomal protein S6 kinase alpha-3 (P51812 whole entry): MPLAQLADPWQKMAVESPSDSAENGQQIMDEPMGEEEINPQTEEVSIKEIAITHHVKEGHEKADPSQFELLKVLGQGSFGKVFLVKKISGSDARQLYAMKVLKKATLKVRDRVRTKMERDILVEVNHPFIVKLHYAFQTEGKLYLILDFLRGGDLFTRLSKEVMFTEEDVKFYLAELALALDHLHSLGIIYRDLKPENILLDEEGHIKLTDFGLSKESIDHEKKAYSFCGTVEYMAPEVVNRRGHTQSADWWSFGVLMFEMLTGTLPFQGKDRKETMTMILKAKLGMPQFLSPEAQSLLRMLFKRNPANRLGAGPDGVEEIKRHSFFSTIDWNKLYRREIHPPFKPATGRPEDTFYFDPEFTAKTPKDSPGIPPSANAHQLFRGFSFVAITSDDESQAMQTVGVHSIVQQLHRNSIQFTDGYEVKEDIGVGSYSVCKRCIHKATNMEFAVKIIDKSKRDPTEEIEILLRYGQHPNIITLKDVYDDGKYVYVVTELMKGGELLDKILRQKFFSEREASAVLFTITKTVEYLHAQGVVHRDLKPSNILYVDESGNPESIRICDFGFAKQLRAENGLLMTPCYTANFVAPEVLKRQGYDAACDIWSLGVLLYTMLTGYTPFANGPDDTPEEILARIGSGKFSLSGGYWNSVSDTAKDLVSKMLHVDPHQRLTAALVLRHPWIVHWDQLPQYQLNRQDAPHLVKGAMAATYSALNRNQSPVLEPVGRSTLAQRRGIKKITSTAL

[4] = target: T1, NUAK family SNF1-like kinase 1 (Homo sapiens) (UniProt O60285); test: Selectivity interaction (Upstate Kinase Profiler service (Millipore)) EUB0000056c NUAK1; conditions: at 1 µM
T1 sequence (whole entry): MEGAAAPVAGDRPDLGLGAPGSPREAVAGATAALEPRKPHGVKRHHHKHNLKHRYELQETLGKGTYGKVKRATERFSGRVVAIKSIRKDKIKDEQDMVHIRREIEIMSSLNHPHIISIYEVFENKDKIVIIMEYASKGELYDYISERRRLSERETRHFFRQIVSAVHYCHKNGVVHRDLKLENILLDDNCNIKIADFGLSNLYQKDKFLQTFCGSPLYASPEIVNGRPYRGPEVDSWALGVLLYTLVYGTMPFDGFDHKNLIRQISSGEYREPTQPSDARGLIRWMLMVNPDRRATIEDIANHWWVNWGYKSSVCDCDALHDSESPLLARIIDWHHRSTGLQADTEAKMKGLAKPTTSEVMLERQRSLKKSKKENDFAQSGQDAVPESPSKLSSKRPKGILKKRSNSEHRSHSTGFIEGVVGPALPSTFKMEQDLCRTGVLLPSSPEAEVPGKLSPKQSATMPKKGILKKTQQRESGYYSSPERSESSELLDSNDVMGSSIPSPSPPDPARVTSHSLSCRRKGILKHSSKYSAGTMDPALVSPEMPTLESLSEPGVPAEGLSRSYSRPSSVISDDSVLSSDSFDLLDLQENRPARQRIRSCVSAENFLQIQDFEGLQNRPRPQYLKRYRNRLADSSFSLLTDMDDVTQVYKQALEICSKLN

[5] = target: T2, Mitogen-activated protein kinase kinase kinase 15 (Homo sapiens) (UniProt Q6ZN16); test: Selectivity interaction (KinomeScan (DiscoverX)) EUB0000655a MAP3K15; conditions: at 10 µM
T2 sequence (whole entry): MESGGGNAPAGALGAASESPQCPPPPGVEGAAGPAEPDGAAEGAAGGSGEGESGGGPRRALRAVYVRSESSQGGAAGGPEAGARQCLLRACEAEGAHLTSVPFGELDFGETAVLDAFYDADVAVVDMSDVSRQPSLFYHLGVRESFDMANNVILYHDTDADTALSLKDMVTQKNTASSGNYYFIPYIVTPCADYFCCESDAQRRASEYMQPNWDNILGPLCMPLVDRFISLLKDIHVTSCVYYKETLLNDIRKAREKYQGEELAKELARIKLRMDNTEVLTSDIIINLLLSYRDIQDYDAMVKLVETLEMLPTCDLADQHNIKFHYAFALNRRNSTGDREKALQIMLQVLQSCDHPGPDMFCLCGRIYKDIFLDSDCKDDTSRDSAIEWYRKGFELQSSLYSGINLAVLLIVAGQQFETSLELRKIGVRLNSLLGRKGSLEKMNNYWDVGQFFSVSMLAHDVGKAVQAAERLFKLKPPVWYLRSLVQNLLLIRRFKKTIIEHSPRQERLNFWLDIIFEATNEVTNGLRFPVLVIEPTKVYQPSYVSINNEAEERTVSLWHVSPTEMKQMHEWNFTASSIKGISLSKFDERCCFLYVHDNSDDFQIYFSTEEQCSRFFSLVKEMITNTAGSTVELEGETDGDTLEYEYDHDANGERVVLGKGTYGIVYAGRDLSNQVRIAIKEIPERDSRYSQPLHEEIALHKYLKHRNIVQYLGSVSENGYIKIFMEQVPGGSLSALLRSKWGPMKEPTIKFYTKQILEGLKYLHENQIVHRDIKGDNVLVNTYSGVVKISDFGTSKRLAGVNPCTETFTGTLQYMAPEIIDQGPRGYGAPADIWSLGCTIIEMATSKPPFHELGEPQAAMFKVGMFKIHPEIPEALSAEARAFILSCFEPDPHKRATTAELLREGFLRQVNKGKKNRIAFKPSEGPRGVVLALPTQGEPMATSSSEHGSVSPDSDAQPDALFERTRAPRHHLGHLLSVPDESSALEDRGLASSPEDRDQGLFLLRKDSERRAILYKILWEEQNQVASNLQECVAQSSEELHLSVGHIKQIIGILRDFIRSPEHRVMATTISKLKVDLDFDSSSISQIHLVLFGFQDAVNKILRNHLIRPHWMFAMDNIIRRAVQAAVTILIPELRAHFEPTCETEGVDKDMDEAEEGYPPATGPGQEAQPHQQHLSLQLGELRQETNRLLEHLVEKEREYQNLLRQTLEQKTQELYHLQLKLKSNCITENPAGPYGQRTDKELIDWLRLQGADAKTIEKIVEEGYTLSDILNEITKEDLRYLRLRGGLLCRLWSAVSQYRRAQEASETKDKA

[6] = target: T3, Tyrosine-protein kinase ITK/TSK (Homo sapiens) (UniProt Q08881); test: Selectivity interaction (KinomeScan (DiscoverX)) EUB0000229b ITK; conditions: at 10 µM
T3 sequence (whole entry): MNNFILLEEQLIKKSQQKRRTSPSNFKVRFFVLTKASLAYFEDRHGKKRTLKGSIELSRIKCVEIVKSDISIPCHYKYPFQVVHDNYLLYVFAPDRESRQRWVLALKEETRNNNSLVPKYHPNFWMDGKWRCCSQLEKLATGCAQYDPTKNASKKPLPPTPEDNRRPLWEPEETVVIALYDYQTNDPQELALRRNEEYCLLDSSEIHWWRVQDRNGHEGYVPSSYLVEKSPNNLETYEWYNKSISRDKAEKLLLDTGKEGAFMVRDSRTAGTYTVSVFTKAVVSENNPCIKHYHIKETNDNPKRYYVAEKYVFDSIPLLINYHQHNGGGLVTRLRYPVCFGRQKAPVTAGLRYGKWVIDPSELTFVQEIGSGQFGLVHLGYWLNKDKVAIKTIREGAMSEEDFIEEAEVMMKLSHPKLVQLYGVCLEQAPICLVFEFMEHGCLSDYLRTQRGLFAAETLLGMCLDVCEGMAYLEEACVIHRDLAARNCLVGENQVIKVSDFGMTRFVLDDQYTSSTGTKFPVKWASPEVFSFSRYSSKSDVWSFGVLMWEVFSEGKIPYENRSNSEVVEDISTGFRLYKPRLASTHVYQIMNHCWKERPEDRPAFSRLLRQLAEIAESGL

[7] = target: Serine/threonine-protein kinase 26 (Homo sapiens, UniProt Q9P289); conditions: PBMC, at 1 µM
Sequence of Serine/threonine-protein kinase 26 (Q9P289 2-416 limits assumed): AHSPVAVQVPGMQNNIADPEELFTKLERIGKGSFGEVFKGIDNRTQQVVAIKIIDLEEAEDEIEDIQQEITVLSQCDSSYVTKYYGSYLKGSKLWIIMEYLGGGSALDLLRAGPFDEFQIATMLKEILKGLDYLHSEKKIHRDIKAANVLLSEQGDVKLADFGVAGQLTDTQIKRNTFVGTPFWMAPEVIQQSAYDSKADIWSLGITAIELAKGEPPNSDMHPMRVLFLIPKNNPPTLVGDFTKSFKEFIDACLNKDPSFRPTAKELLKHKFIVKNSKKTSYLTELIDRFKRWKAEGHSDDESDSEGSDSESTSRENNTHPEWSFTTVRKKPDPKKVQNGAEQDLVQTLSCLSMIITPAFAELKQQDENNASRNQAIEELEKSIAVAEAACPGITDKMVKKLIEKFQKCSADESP

% of control [1]: -3.48%
Compound: Cn1cc(-n2cnc3c(NCc4nc5cc(Cl)c(Cl)cc5[nH]4)nc(N4CCOCC4)nc32)cn1

Compound: O=C(NOC[C@H](O)CO)c1ccc(F)c(F)c1Nc1ccc(I)cc1F
% of control [2]: 100%

IC50 (Motilin receptor): > 30 µM
Compound: CCC(=O)N1CC[C@H](Nc2ncnc3c2CN(c2cnc(OC)c(C(F)(F)F)c2)CC3)C1 [LENIOLISIB]

% of inhibition [3]: 0%
Compound: CN1Cc2nccc(-c3cn(C)nc3-c3ccc(F)cc3)c2C1=O

% of inhibition [4]: 35%
Compound: Cc1ccc(-c2ccc3c(ccc4sc5c(c43)NC[C@@H](C)NC5=O)n2)cn1

Compound: CN(C)CCOc1ccc(-c2nc(-c3ccncc3)c(-c3ccc4c(c3)CC/C4=N\O)[nH]2)cc1
% of control [5]: 100%

Compound: COc1cc(N(C)c2ccnc3ccc(C(F)(F)F)cc23)cc(OC)c1OC
% binding [6]: 94%

Compound: N#Cc1cccc(-c2c[nH]c3ncnc(N4CCOCC4)c23)c1
% of inhibition [7]: 61%
